Earlier results as cited in patent US20180344745A1, “TREATMENT OF DEVELOPMENTAL DISORDERS WITH IMIDAZOLONE DERIVATIVES” (Ovid Therapeutics Inc., priority 2017, published 2018).

Conditions: smokers versus non-smokers

Structure (SMILES): O=C1N=C(N2CCOCC2)CN1c1ccc(Cl)cc1 [imepitoin, 1-(4-chlorophenyl)-4-morpholino-imidazolin-2-one]
- elimination: more rapidly eliminated in smokers than in non-smokers
